The values that follow are results of earlier work, collected in US5180725A, “Quinoxalinyl/quinoxaliy; alkyl-N-terminal amino hydroxy” (G. D. Searle & Co., priority 1991, dated 1993).

In this data set the test system is hog renin. Conditions: after the injection of hog renin into nephrectomized rats.

Square brackets hold non-standard residues; d marks the D form. Peptide text beside a SMILES is read from it. * marks the point of attachment. Sta = CC(C)C[C@H](N)[C@@H](O)CC(=O)O; Isovaleryl = CC(C)CC(=O)*

As for `CC(C)CC(=O)N[C@H](C(=O)N[C@H](C(=O)N[C@@H](CC(C)C)[C@@H](O)CC(=O)N[C@@H](C)C(=O)N[C@@H](CC(C)C)[C@@H](O)CC(=O)O)C(C)C)C(C)C` [pepstatin] (Isovaleryl-VV[Sta]A[Sta]-OH), the “blood pressure in vivo” value was “found to reduce blood pressure in vivo”.
